The values below come from patent publication US5273991A, “Imidazole-containing compositions and methods of use thereof analogs of distamycin” (Research Corporation Technologies, Inc., priority 1992, dated 1993).

What is called IC50 is the point on the concentration scale where inhibition reaches its midpoint.

Read-outs that look alike come from different tables or passages of the source.

Assay [1] concerns human chronic myelogenous leukemic K562 cells. The assay can be described thus: growth inhibition of K562 cells (MTT viability assay). Format: cell-based. The following applies: for IC50: Homo sapiens, K562, 1 hour drug exposure at 37° C., 5-6 days, MTT; for activity against the growth of K562 cells: in words. As for the experimental part:
The ability of the compounds of the present invention to inhibit the growth of human chronic myelogenous leukemic K562 cells was determined as follows.
The incubation was terminated by centrifugation (5 minutes, 300 g) and the cells washed once with drug-free medium.
Following the appropriate drug treatment, the cells were transferred to 96-well microtiter plates, 10^4 cells per well, 8 wells per sample. Plates were then kept in the dark at 37° C. in a humidified atmosphere containing 5% CO2. […] Following incubation of the plates of 5-6 days (to allow control cells to increase in the number by 10 fold) 20 μL of a 5 mg/mL solution of MTT in phosphate buffered saline was added to each well and the plates further incubated for 5 h. The plates were then centrifuged for 5 minutes at 300 g and the bulk of the medium pipetted from the cell pellet leaving 10-20 μL per well. 200 μL DMSO was added to each well and the samples agitated to ensure complete mixing. The optical density was then read at a wavelength of 550 nm on a Titertek Multiscan ELISA plate reader and the dose-response curve constructed.
Background: Tetrazolium dyes change colour on reduction, which living cells bring about.

Assay [2] has as its system calf thymus DNA. The following applies: literature constant, read-out: KEtBr; cited from earlier work.
For assay [3], the system named is T4 coliphage DNA. The following applies: literature constant, read-out: KEtBr; cited from earlier work.
Assay [4] concerns the target poly(dAdT). The following applies: poly(dA.dT); literature constant; read-out: KEtBr (converted); cited from earlier work.
The target of assay [5] is poly(dGdC). The following applies: poly(dG.dC); literature constant; read-out: KEtBr (converted); cited from earlier work.
In assay [6] the test system is T4 coliphage DNA. Kind of assay: ethidium displacement assay, T4 coliphage DNA. It is filed as binding. The following applies: ± 0.02 × 10^5 M^-1, pH 7.4. From the text:
(§1) The ethidium displacement assay is based on the fact that ethidium binding to DNA causes a large (approximately 25 fold) florescence enhancement as a result of the hydrophobic environment surrounding the ethidium molecule. Displacement of ethidium results in decreased fluorescence, and thus binding constants of drugs to DNA can be estimated and compared by measuring the loss of fluorescence as a function of added drug. The drug concentration which produces 50% inhibition of florescence is approximately inversely proportional to the apparent binding constant.
The apparent binding constants for T4 coliphage DNA are an indicator of the minor groove selectivity of the compounds of the present invention. The major groove of T4 coliphage DNA is blocked by α-glycosylation of the 5-hydroxymethylcytidine residues; therefore, the non-intercalating agents that bind to T4 coliphage DNA must interact in the minor groove [Lown (1982) Acc. Chem. Res., 15, 381].
(§2) The relative DNA binding constants (Kapp) of distamycin and Compounds 6-10 to calf thymus DNA, T4 coliphage DNA, poly(dAdT) and poly(dGdC) were determined using the ethidium displacement assay (Morgan et al., 1979). The Kapp of ethidium bromide (Debart et al., 1989) is included for comparison. 25 μL of a 2A260 DNA solution was added to 2 mL of ethidium bromide buffer (250 μL of 1.3 mM ethidium bromidestock, 314.9 mg Tris-HCl, 60.8 mg Tris base and 930/mg of Na2 EDTA.2H2 O in 250 ml H2 O) pH 7.4 and the maximum fluorescence was measured (excitation wavelength=546 nm, emission wavelength=600 nm) at ambient temperature.
(§3) DNA solutions of 2A260 were prepared as follows: T4 coliphage DNA: 10 units of DNA were dissolved in 1 mL of 10 mM sodium phosphate (pH 7.1) and 0.25 mM EDTA buffer to give a 10A260 solution. 0.3 mL of the stock solution were diluted to 1.5 mL with 10 mM sodium phosphate (pH 7.1) and 0.25 mM EDTA buffer to give a 2A260 solution. Calf thymus DNA: 100 units of DNA were dissolved in 5 mL of 10 mM sodium phosphate (pH 7.1) and 0.25 mM EDTA buffer to give a 20A260 solution. 1.5 mL of the stock solution were diluted to 15 mL with 10 mM sodium phosphate (pH 7.1) and 0.25 mM EDTA buffer to give a 2A260 solution. Poly(dA-dT) and Poly(dG-dC) DNA: 100 units of DNA were dissolved in 10 mL of 10 mM sodium phosphate pH 7.1) and 0.25 mM EDTA buffer to give a 10A260 solution. 3 mL of the stock solution were diluted to 15 mL with 10 mM sodium phosphate (pH 7.1) and 0.25 mM EDTA buffer to give a 2A260 solution.
(§4) Aliquots of 10 mM stock drug solution (1 mg of drug to be tested was dissolved with 1 mole equivalent of 0.1M HCl, and then diluted with appropriate volume of distilled water to make a 10 mM solution) were then added to the fluorescing solution and the florescence measured after each addition until a 50% reduction of fluorescence occurred. If the 10 mM stock solution lowered the % fluorescence too quickly, the stock solution was further diluted to 1 mM prior to titration. The apparent binding constant was then calculated from this equation: KEtBr [EtBr]=Kapp [drug], where [drug]=the concentration of drug at a 50% reduction of fluorescence and KEtBr [1×10^7 M^-1 for calf thymus and coliphage T4 DNA^18, 9.5×10^6 M^-1 for poly(dA.dT)^30, and 9.9×10^6 M^-1 for poly(dG.dC)^30 ] and [EtBr] were known. The concentration of ethidium bromide was 1.3 μM. The Kapp values are shown in Table I. In a separate experiment, the Kapp of Compound 5 for calf thymus DNA and poly[dGdC] were determined to be 0.3×10^5 M^-1 and 2.6×10^5 M^-1, respectively. The error in these measurements is ±[…].

In assay [7] the test system is calf thymus DNA. Kind of assay: ethidium displacement assay, calf thymus DNA. It is filed as binding.
Excerpt: as §1, §2, §3, §4

In assay [8] the target is poly(dGdC). Kind of assay: ethidium displacement assay, poly(dGdC). Format: binding.
Excerpt: as §1, §2, §3, §4

Assay [9] addresses poly(dAdT). The assay can be described thus: ethidium displacement assay, poly(dAdT). Format: binding. The settings on record: ± 0.02 × 10^5 M^-1, pH 7.4.
Excerpt: as §1, §2, §3, §4

A further assay concerns minor groove of B-DNA. The following applies: cited from earlier work.
Assay [10] deals with calf thymus DNA. The assay can be described thus: UV-dialysis study (covalent retention on DNA). It is filed as binding. The following applies: 24 h incubation at room temperature; 20-26 hours dialysis; pH 7.1. From the text:
The compounds of the present invention are useful as anticancer agents. Although the biological mechanism which results in anticancer activity is not fully understood, the compounds of the subject invention are capable of binding to the minor groove of double-stranded DNA and, unlike distamycin and netropsin, can tolerate GC-containing DNA. Accordingly, the DNA alkylating moiety of the compounds of the present invention can be directed to the minor groove of GC-containing regions of double-stranded DNA. One of ordinary skill in the art can determine the DNA alkylating ability of the compounds of the present invention by art-recognized methods. The formation of an irreversible adduct of DNA and a compound of the present invention is defined herein as a measure of the DNA alkylating ability of the subject compounds. The formation of an irreversible adduct can be determined by art-recognized methods. For example, a solution containing DNA and a compound of the present invention can be exhaustively dialyzed under conditions which allow unbound drug to pass out of the dialysis bag. The percentage of the compound which has been retained in the dialysis bag is considered to be covalently bound to the DNA, and is determined by comparing the UV absorption spectrum of the compound/DNA solution before and after exhaustive dialysis.
0.5 mL of 2A260 calf thymus DNA was diluted to 2 mL with 10 mM sodium phosphate and 0.25 mM EDTA buffer, pH 7.1. Four aliquots (3 μL each) of a 1 mM stock drug solution in distilled water were added to the DNA solution and a UV absorption spectrum (300-320) was recorded after each addition. The drug/DNA solution was incubated for 24 h at room temperature and another UV spectrum was recorded. The drug/DNA solution was then transferred into a dialysis bag and the dialysis bag was suspended in 30 mL of 10 mM sodium phosphate and 0.25 mM EDTA buffer, pH, 7.1, at room temperature. After 20-26 hours, the […] spectrum of 2 mL of the buffer outside the dialysis bag was recorded. The absorbance of the drug peak was converted to concentration by the Beer-Lambert equation, and the data was presented as percent initial concentration. Under these conditions, substantial amounts of Compounds 6 (55±5%), 7 (45±5%), 8 (85±5%) and 10 (100±5%) are retained in the dialysis bag, while only 29±5% of a formamido analog^1 is retained.

In assay [1], `CN(C)CCNC(=O)c1nc(NC(=O)c2nc(NC(=O)CCl)cn2C)cn1C` [Compound 11, N-(N',N'-dimethylaminoethyl)-1-methyl-4-[4-(chloroacetamido)-1-methylimidazole-2-carboxamido)imidazole-2-carboxamide] displayed a concentration for half-maximal inhibition (IC50) of 350 µM.

On to `CN(C)NC(=O)c1nc(NC(=O)c2nc(NC=O)cn2C)cn1C` [Compound 13], for which, in [1], the IC50 was above 500 µM and the “activity against the growth of K562 cells” value (“activity against the growth” below) is “no activity”.

Regarding `CN(C)CCNC(=O)c1nc(NC(=O)c2nc(NC=O)cn2C)cn1C` [Compound 14], in [1], the concentration for half-maximal inhibition (IC50) was above 500 µM and the “activity against the growth” value is reported as “no activity”.

In turn, `CN(C)CCNC(=O)c1nc(NC(=O)c2nc(NC(=O)CBr)cn2C)cn1C` [Compound 12, N-(N',N'-dimethylaminoethyl)-1-methyl-4-[4-(bromoacetamido)-1-methylimidazole-2-carboxamido]imidazole-2-carboxamide] showed an IC50 in assay [1] of 400 µM.

In the case of `CC[n+]1c(-c2ccccc2)c2cc(N)ccc2c2ccc(N)cc21` [EtBr, ethidium bromide], the Kd in the assay on calf thymus DNA [2] was 0.1 µM; in the assay on T4 coliphage DNA [3], 0.1 µM; at poly(dAdT) [4] it was 0.105 µM; at poly(dGdC) [5], 0.101 µM.

Take `Cn1cc(NC(=O)c2cc(NC(=O)c3cc(NC=O)cn3C)cn2C)cc1C(=O)NCCC(=N)N` [Distamycin, distamycin]: the “Association constant Kapp” value in the assay with T4 coliphage DNA [6] is 640000 M⁻¹; in the assay with calf thymus DNA [7] (± 0.02 × 10^5 M^-1, pH 7.4), 774000 M⁻¹; on poly(dGdC) [8] (poly(dGdC), ± 0.02 × 10^5 M^-1, pH 7.4), 203000 M⁻¹; at poly(dAdT) [9], 3.48e+07 M⁻¹. Besides, the “specific nucleotide sequence bound / preferred” value with minor groove of B-DNA is on record as “(AT)5”.

Take `CN(C)CCNC(=O)c1nc(NC(=O)c2nc(NC(=O)c3nc(NC=O)cn3C)cn2C)cn1C` [Compound 15, N-(N',N'-dimethylaminoethyl)-1-methyl-4-{1-methyl-4-[4-formamido-2-methylimidazole-2-carboxamido]imidazole-2-carboxamido}imidazole-2-carboxamide]: the “retained in the dialysis bag (percent initial concentration)” value with calf thymus DNA [10] is given as 29±5%. Also, in assay [1], the IC50 was above 500 µM and the “activity against the growth” value is listed as “no activity”.

Take `CN(C)NC(=O)c1nc(NC(=O)c2nc(NC(=O)c3ccc(N(CCCl)CCCl)cc3)cn2C)cn1C` [Compound 5, N-(N',N'-dimethylamino)-1-methyl-4-{4-[4,4-bis(2-chloroethyl)aminobenzamido]-1-methylimidazole-2-carboxamido}imidazole-2-carboxamide]: the Kd in the assay with calf thymus DNA [7] (separate experiment, read-out: Kapp (converted)) is 33.3 µM; at poly(dGdC) [8] (poly[dGdC], separate experiment, read-out: Kapp (converted)), 3.85 µM.

Regarding `Cn1cc(NC(=O)c2cc(NC(=O)CN=C(N)N)cn2C)cc1C(=O)NCCC(=N)N` [Netropsin, netropsin], in the assay on minor groove of B-DNA, the “specific nucleotide sequence bound / preferred” value is reported as “(AT)4”.
